Laboratory results as given in article PMC9658812, “New Pyrimidine-5-Carbonitriles as COX-2 Inhibitors: Design, Synthesis, Anticancer Screening, Molecular Docking, and In Silico ADME Profile Studies” (Molecules, 2022).
Several values for one entry are separate records, joined by “and”; a condition that tells them apart may be missing. Equal values may be shown once. Read-outs that look alike come from different tables or passages of the source. Blank lines part the entries; values can stand above or below the molecule they belong to.

Legend:
human COX-2 = molecular target: T1, human COX-2 (Homo sapiens, UniProt P35354); assay: COX-2 inhibition assay (fluorometric inhibitor screening kit); format: biochemical; conditions: for inhibition at 10 µM / inhibition at 1 µM / inhibition at 0.1 µM / inhibition at 0.01 µM / inhibition at 0.001 µM: read-out: COX-2 Inhibition (%); for IC50: human COX-2 assay kit, three experiments
T1 construct: purchased Biovision, Zurich, Switzerland
T1 sequence (P35354 18-604): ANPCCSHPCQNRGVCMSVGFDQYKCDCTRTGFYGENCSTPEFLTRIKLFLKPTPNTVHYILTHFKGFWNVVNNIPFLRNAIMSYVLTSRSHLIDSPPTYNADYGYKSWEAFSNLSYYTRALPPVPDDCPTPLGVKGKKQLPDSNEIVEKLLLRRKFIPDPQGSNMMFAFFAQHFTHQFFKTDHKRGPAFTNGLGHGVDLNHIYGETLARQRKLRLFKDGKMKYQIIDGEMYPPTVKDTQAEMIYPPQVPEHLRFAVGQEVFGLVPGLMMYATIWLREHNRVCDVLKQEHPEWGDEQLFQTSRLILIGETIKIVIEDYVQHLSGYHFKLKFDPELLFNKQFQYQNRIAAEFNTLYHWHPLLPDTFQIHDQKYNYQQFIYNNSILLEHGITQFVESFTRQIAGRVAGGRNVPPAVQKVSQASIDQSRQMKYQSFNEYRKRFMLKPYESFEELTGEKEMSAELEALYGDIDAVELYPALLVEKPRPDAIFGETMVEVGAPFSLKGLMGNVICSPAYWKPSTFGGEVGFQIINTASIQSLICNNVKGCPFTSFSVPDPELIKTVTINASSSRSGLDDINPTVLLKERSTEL
Text: Fluorometric inhibitor screening kits (Biovision, Zurich, Switzerland) were utilized for the COX-2 enzyme inhibition test, as described before.

[1] = system: A549 cells (non-small-cell lung cancer); assay: MTT cytotoxicity assay, A549; conditions: for IC50: Homo sapiens, A549, 24 h, read-out: Cytotoxicity IC50 A549
Procedure: (§1) Breast carcinoma (MCF-7), renal cell carcinoma (A498), lung cancer (A549), and liver carcinoma (HepG2) cell lines, in addition to non-tumorigenic WI-38 cell lines, were collected from the American Type Culture Collection. The cells were grown in DMEM (Invitrogen/Life Technologies) containing 1% penicillin-streptomycin, 10 µg/mL of insulin (Sigma), and 10% FBS (Hyclone).
(§2) To check the possible cellular toxicity, synthesized compounds were subjected to the MTT [3-(4,5-dimethylthiazol-2-yl)-2,5-diphenyltetrazolium bromide] assay against the MCF7, A549, A498, and HepG2 cell lines. […] Later, 2.0–3.0 mL of Trypsin EDTA solution was added into the flask containing the cell layers for 5–15 min to disperse the cell layer, which was observed through an inverted microscope. By gently pipetting, aspirated cells were added into a 6.0–8.0 mL growth medium. […] An amount of 20 μL of a 5-mg/mL MTT solution was applied after a 24-h drug-treatment period, and it was incubated for 4 h. To dissolve the produced purple formazan, each well received 100 μL of dimethyl sulfoxide (DMSO).

[2] = system: MCF7 cells (breast carcinoma); assay: MTT cytotoxicity assay, MCF7; conditions: for IC50: Homo sapiens, MCF7, 24 h, read-out: Cytotoxicity IC50 MCF7
Procedure: as §1, §2

[3] = system: WI-38 cells (normal cell derived from lung tissue); assay: Cytotoxicity on non-tumorigenic WI-38 cell line; conditions: Homo sapiens, WI-38, read-out: WI-38 IC50
Procedure: as §1, §2

[4] = system: A498 cells (renal carcinoma); assay: MTT cytotoxicity assay, A498; conditions: for IC50: Homo sapiens, A498, 24 h, read-out: Cytotoxicity IC50 A498
Procedure: as §1, §2

[5] = system: HepG2 cells (liver carcinoma); assay: MTT cytotoxicity assay, HepG2; conditions: for IC50: Homo sapiens, HepG2, 24 h, read-out: Cytotoxicity IC50 HepG2
Procedure: as §1, §2

MCF-7 cells [6] = assay: Apoptosis determination by Annexin-V assay; format: cell-based; conditions: MCF-7, IC50 concentration
Procedure: A biparametric cytofluorimetric analysis was performed using the Annexin-V assay to verify the ability of compound 5d at its IC50 concentration to trigger apoptosis. When compared to the control, compound 5d increased the proportion of early and late apoptotic cells in MCF-7 cells by nearly 13- and 60-fold, respectively, when compared to control cells, which had 0.53% and 0.25% early and late apoptotic cells, respectively.
The MCF-7 cell culture was treated with an IC50 of compound 5d for 48 h. The cancer cells were then suspended in PBS, centrifuged, and preserved in 99% ethanol (ice-cold). Cells suspended in ethanol were centrifuged for 5 min before being suspended in PBS and re-centrifuged once again. The supernatant was decanted, and the cells were stained at 37 °C with annexin V fluorescein isothiocyanate and PI using the apoptosis detection kit (BD Biosciences, San Jose, CA, USA) following the manufacturer’s instructions. A flow cytometer was used to examine the binding of annexin V-FITC and PI. The FACS Calibur was used to assess the cells, and Phoenix Flow Systems and Verity Software House were employed to calculate their distributions.

MCF-7 cells [7] = assay: Cell cycle analysis by flow cytometry (PI); format: cell-based
Procedure: These findings imply that compound 5d’s cytotoxicity was proven by the arrest of cell growth at the G2/M phase.
Compound 5d was applied to MCF-7 cell culture for 48 h at its IC50 concentration. Briefly, cells were rinsed twice with phosphate buffer saline (PBS) (ice-cold) and then centrifuged and/or fixed in 70% (v/v) ethanol (ice-cold). The solution was rinsed with PBS, suspended with RNase (0.1 mg/mL), stained with propidium iodide (PI) ([…]), and analyzed via flow cytometry utilizing the FACS Calibur (Becton Dickinson, Franklin Lakes, NJ, USA). Through Cell-Quest software (Becton Dickinson), cell cycle distributions were calculated.

[8] = system: gastric MGC-803 cancer cells; parameters: method as in PMID 25610955, PMID 25180925; conditions: cited from earlier work
[9] = 10^−5 M, mean of three experiments ± SD
[10] = 10^−6 M, mean of three experiments ± SD
[11] = 10^−7 M, mean of three experiments ± SD
[12] = 10^−8 M, mean of three experiments ± SD
[13] = 10^−9 M, mean of three experiments ± SD
[14] = MCF-7, compound at its IC50 concentration, 48 h

Structure (SMILES): COc1ccc(-c2nc(NCc3cc4ccccc4s3)nc(OC)c2C#N)cc1 [Compound 3d, 2-(Benzo[b]thiophen-2-ylmethylamino)-4-methoxy-6-(4-methoxyphenyl)pyrimidine-5-carbonitrile]
inhibition at 10 µM (human COX-2; [9]): 38.3 ± 0.63% | inhibition at 1 µM (human COX-2; [10]): 31.6 ± 0.54% | inhibition at 0.1 µM (human COX-2; [11]): 21.5 ± 0.49% | inhibition at 0.01 µM (human COX-2; [12]): 70.3 ± 1.11% | inhibition at 0.001 µM (human COX-2; [13]): 60.4 ± 0.98% | IC50 (human COX-2): 340 ± 10 nM | melting point: > 300 °C

Structure (SMILES): COc1cccc2c1C(=O)c1c(O)c3c(c(O)c1C2=O)C[C@@](O)(C(=O)CO)C[C@@H]3O[C@H]1C[C@H](N)[C@H](O)[C@H](C)O1 [Doxorubicin, doxorubicin, reference compound]
IC50 [1]: 13 ± 0.42 nM | IC50 [2]: 9 ± 0.26 nM | IC50 [3]: 8.83 ± 0.09 µM | IC50 [4]: 7 ± 0.23 nM | IC50 [5]: 25 ± 0.55 nM

Structure (SMILES): CS(=O)(=O)Nc1ccc([N+](=O)[O-])cc1Oc1ccccc1 [Nimesulide, reference compound]
inhibition at 0.001 µM (human COX-2): 17.1 ± 0.38% | inhibition at 0.01 µM (human COX-2): 24 ± 0.42% | inhibition at 0.1 µM (human COX-2): 29.4 ± 0.55% | inhibition at 1 µM (human COX-2): 36.4 ± 0.84% | inhibition at 10 µM (human COX-2): 69.5 ± 1.02%

Structure (SMILES): COc1ccc(-c2nc(NCc3nc4ccccc4[nH]3)nc(OC)c2C#N)cc1 [Compound 3a, 2-((1H-Benzo[d]imidazol-2-yl)methylamino)-4-methoxy-6-(4-methoxyphenyl)pyrimidine-5-carbonitrile]
inhibition at 10 µM (human COX-2; [9]): 71.2 ± 1.13% | inhibition at 1 µM (human COX-2; [10]): 62.5 ± 0.95% | inhibition at 0.1 µM (human COX-2; [11]): 41.1 ± 0.55% | inhibition at 0.01 µM (human COX-2; [12]): 32 ± 0.61% | inhibition at 0.001 µM (human COX-2; [13]): 22.3 ± 0.45% | IC50 (human COX-2): 230 ± 10 nM

Structure (SMILES): C#CCSc1nc(NC(N)=S)c(C#N)c(-c2cc(OC)c(OC)c(OC)c2)n1 [III]
IC50 [8]: 4.01 µM

Further lines, with some results ahead:

inhibition at 10 µM (human COX-2; [9]): 41.8 ± 0.91% | inhibition at 1 µM (human COX-2; [10]): 35.9 ± 0.72% | inhibition at 0.1 µM (human COX-2; [11]): 23.1 ± 0.25% | inhibition at 0.01 µM (human COX-2; [12]): 76.1 ± 1.05% | inhibition at 0.001 µM (human COX-2; [13]): 60.7 ± 1.09% | IC50 (human COX-2): 160 ± 10 nM | melting point: 291 to 293 °C
Structure (SMILES): COc1ccc(-c2nc(NS(=O)(=O)c3ccc(C(F)(F)F)cc3)nc(OC)c2C#N)cc1 [Compound 5d, N-(5-Cyano-4-methoxy-6-(4-methoxyphenyl)pyrimidin-2-yl)-4-(trifluoromethyl)benzene sulfonamide]
IC50 [1]: 1 ± 0.05 nM | fold more cytotoxic than doxorubicin, A549 ([1]; versus doxorubicin): ~13 fold | increase of proportion of early apoptotic cells versus control (MCF-7 cells [6]): ~13 fold | increase of proportion of late apoptotic cells versus control (MCF-7 cells [6]): ~60 fold | proportion of necrosis versus control (MCF-7 cells [6]): three-fold | Apoptosis Early (MCF-7 cells [6]; 48 h): 6.78 ± 0.25% | Apoptosis Late (MCF-7 cells [6]; 48 h): 14.96 ± 1.10% | Necrosis (MCF-7 cells [6]; 48 h): 2.83 ± 0.47% | accumulation of cell population in G2/M phase compared to control (MCF-7 cells [7]; MCF-7, IC50 concentration): 5 times | accumulation of cell population in sub-G1 phase compared to control (MCF-7 cells [7]; MCF-7, IC50 concentration): 16 times | %G0-G1 (MCF-7 cells [7]; [14]): 24.39 ± 3.01 % | %G2/M (MCF-7 cells [7]; [14]): 58.37 ± 0.52 % | %Pre-G1 (MCF-7 cells [7]; [14]): 26.16 ± 1.53% | %S (MCF-7 cells [7]; [14]): 16.23% and 16.23 ± 1.23 % | IC50 [2]: 1 ± 0.03 nM | fold more cytotoxic than doxorubicin, MCF7 ([2]; versus doxorubicin): about 9 fold | IC50 [3]: 91.29 ± 0.47 µM | IC50 [4]: 2 ± 0.08 nM | fold more cytotoxic than doxorubicin, A498 ([4]; versus doxorubicin): ~3.5 fold | IC50 [5]: 9 ± 0.34 nM | fold more cytotoxic than doxorubicin, HepG2 ([5]; versus doxorubicin): ~2.8 fold

inhibition at 10 µM (human COX-2; [9]): 40.1 ± 0.57% | inhibition at 1 µM (human COX-2; [10]): 30.2 ± 0.49% | inhibition at 0.1 µM (human COX-2; [11]): 23.6 ± 0.51% | inhibition at 0.01 µM (human COX-2; [12]): 72.2 ± 1.31% | inhibition at 0.001 µM (human COX-2; [13]): 61.3 ± 0.84% | IC50 (human COX-2): 260 ± 10 nM | melting point: 241 to 243 °C
Structure (SMILES): COc1ccc(-c2nc(NS(=O)(=O)c3ccccc3)nc(OC)c2C#N)cc1 [Compound 5a, N-(5-Cyano-4-methoxy-6-(4-methoxyphenyl)pyrimidin-2-yl)benzenesulfonamide]
